We go through 4 compounds from publication PMC11053681, “Gold(I) and Silver(I) Complexes Containing Hybrid Sulfonamide/Thiourea Ligands as Potential Leishmanicidal Agents” (Pharmaceutics, 2024).

The subject of one data set is Leishmania infantum. As to the kind of experiment: Leishmanicidal activity against promastigotes (resazurin). It counts as cell-based. Conditions: for IC50: promastigote form, 24 h treatment, resazurin, read-out: IC50 L. infantum; for SI L. infantum: selectivity index = CC50 (Vero) / IC50 (L. infantum promastigotes). The protocol:
(§1) The Leishmania infantum and Leishmania braziliensis strains were maintained in Schneider medium supplemented with 20% of SFB (Schneider 20%), cultivated in […] bottles and stored at 28 °C in a BOD oven. For the assays, parasites at the 5th day stationary growth phase were used.
(§2) The promastigotes metacyclic form of Leishmania infantum and Leishmania braziliensis were first filtered with an insulin syringe to break up rosettes and, then, were isolated from the culture in the stationary phase by centrifugation of 400× g for 4 min at a temperature of 4 °C [53]. The supernatant was subjected to a new centrifugation, heavier, of 2000× g for 30 min, also at 4 °C. The supernatant was discarded and the cell pallet formed from this centrifugation was resuspended in 10 mL of 10% Schneider medium. The process ensured the removal of cellular debris and dead parasites, as well as possible crystals from the culture medium, so that the quality of the experiment was guaranteed. Then, the promastigotes were diluted to 1:10 in paraformaldehyde (PFA) for counting in a Neubauer Chamber, with the concentrations adjusted for each experiment.
(§3) An amount of 1 × 10^7 parasites per well was used. The parasites were plated in 96-well plates. Then, the compounds were added in triplicate, starting at a concentration of 500 µM, with serial dilutions being performed up to a concentration of 3.9 µM [53]. The treatment was carried out for 24 h and, after adding 5 µL of resazurin, the fluorescence was read using a Enspire model spectrofluorometer (Perkin-Elmer, Waltham, MA, USA).
(In general: Resazurin is reduced to fluorescent resorufin, in cell work by metabolically active cells.)

In the next data set the test system is Leishmania braziliensis. The description is as above. The format is cell-based. To be noted: for IC50: promastigote form, 24 h treatment, resazurin, read-out: IC50 L. braziliensis; for SI L. braziliensis: selectivity index = CC50 (Vero) / IC50 (L. braziliensis promastigotes). The method, then: as §1, §2, §3
For data set [1], the system named is Vero cells. As to the kind of experiment: Cytotoxicity assay on Vero cells (resazurin). It counts as cell-based, African green monkey. To be noted: 24 h treatment. The protocol:
For the experiment, Vero cells (ATCC CRL-1587) were used in Roswell Parl Memorial Institute (RPMI) medium with 10% fetal bovine serum (FBS) (RPMI 10%) and 20 μg/mL of Gentamicin. They were cultivated in culture bottles of […] and kept in an oven at 37 °C with 5% carbon dioxide (CO2). When picked or used on the day of the experiment, the cells were detached from the wall of the bottles with saline and 1X trypsin/EDTA. To find out how many cells there were in the bottle, it was diluted in Turkey liquid and then we proceeded with the counting in the Neubauer Chamber to calculate the desired concentrations. The Vero cells were plated at […] cells per well, in 96-well plates, and kept in an incubator with 5% CO2 at 37 °C for 24 h. Then, the compounds were added in triplicate, starting at a concentration of 500 µM, with serial dilution being performed up to a concentration of 3.9 µM [54]. The treatment was carried out for 24 h, and, after adding 5 µL of resazurin, the fluorescence was read using a spectrofluorometer (EnSpire Perkin-Elmer, Waltham, MA, USA).

A short description of data set [2]: Solubility in organic solvents. The format is physicochemical.
The target in data set [3] is T1, LbOYE (Leishmania braziliensis, UniProt A4H6Z3). The experiment in a line: LbOYE enzyme kinetics (NADPH decay at 340 nm). It counts as biochemical. Conditions: 20 µmol L^−1 compound, 1 µmol L^−1 LbOYE, 100 µmol L^−1 NADPH; substrates NEM and O2. The protocol: The initial rates were obtained through the decay of the band at 340 nm referring to the maximum absorption of the NADPH (Nicotinamide Adenine Dinucleotide Phosphate) reducer, as previously reported. Solutions containing 1 µmol L^−1 of LbOYE, DMSO or 20 µmol L^−1 of the tested compounds from a stock solution at a concentration of 5 mmol L^−1 in DMSO were prepared in the presence and absence of the substrate N-Ethylmaleimide (NEM). These solutions were left for 30 min at room temperature. After 30 min, the NADPH reducer was added at a final concentration of 100 µmol L^−1.
T1 sequence (A4H6Z3 entry or part of it): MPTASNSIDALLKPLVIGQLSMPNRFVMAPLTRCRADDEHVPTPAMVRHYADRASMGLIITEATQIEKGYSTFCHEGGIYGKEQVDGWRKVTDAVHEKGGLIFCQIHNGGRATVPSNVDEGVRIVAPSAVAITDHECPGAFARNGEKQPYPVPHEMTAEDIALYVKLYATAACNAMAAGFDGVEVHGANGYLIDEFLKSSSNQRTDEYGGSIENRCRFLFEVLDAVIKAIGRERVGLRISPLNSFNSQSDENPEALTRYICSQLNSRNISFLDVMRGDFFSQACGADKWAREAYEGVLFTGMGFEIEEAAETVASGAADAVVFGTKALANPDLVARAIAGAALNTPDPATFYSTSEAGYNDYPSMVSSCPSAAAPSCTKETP
Figure 7 Initial velocity (V0) for the reaction between 1 µmol L^−1 of LbOYE and 100 µmol L^−1 of NADPH in the presence of DMSO (control) or 20 µmol L^−1 of the compounds tested. Using (A) 100 µmol L^−1 of NEM in the presence of O2 and (B) absence of NEM in the presence of O2. Experiments carried out in phosphate buffer 25 mmol L^−1 pH 7.0, NaCl 100 mmol L^−1.

In data set [4] the target is T1, LbOYE. The experiment in a line: Suppression of intrinsic tryptophan fluorescence of LbOYE. It counts as binding. Conditions: 25 °C. An excerpt: The recombinant LbOYE protein was produced using the methodology previously described. Briefly, the protein was expressed in strains of bacterial Escherichia coli BL21(DE3) through induction by IPTG using the pET28a:LbOYE vector. The enzyme was purified through a chromatography step of capture by nickel affinity, as the pET28a vector allows the expression of a polyhistidine fusion peptide, located at the N-terminal end of the protein. After affinity purification, the polyhistidine tail was excised by “overnight” incubation with thrombin, and the second purification step was performed using size exclusion chromatography. Purification was evaluated by SDS-PAGE and protein concentration was estimated by spectrophotometry.
The emission spectra of the intrinsic fluorescence of the tryptophan were recorded using a Shimadzu F-4500 spectrofluorometer in the range of 310–420 nm, with opening of slits of excitation and emission at 5.0 nm and λex = 295 nm. Interaction analyzes between LbOYE and ligands were performed at λmax = 333 nm.
(§4) The compounds were solubilized in DMSO and then we made successive dilutions in a Tris-HCl 25 mmol L^−1 buffer, pH 8.0, containing 100 mmol L^−1 of NaCl. For all experiments, the final concentration of DMSO was kept constant and equal to 2.5%. Solutions with increasing concentrations of ligand and constant concentration of LbOYE (1 µmol L^−1) were prepared, which were kept at 25 °C for a period of 1h before acquisition of fluorescence emission spectra.
The results were obtained from the fluorescence emission spectra of the intrinsic tryptophan probe in the presence of the compounds HL1^Ch, HL3^FPh, HL5^NO2Ph, [Au(HL1^Ch)2]Cl and [Ag(HL3^FPh)2]NO3. The bonding parameters were determined by the Hill plot, obtaining the dissociation constant (Kd) through the non-linear adjustment of the saturation curve to the experimental data. The double-log plot was used to determine the bonding constant and the number of bonding sites (n). It also allows the calculation of the bonding constant (Kb) and Kd from 1/Kb.
Equation (1)—Hill’s equation:(1) F0−F/F0=[L]/L+Kd
Equation (2)—Double-log:(2) logF0−F/F0=nlogKb−nlog1/L−(F0−F)[P0]/F
Equation (3)—Equation of Stern–Volmer:(3) F0/F=1+KSV[L]
The study of fluorescence quenching can be affected when the ligand has absorption bands that coincide with excitation and emission wavelengths of fluorescence. This interference is called the internal filter effect, which can be minimized using the procedure described by Equation (4). Fobs and Fcor are the fluorescence intensities at 333 nm measured and corrected, respectively; l represents the optical step where the absorption and emission of light occurs and C0 is the concentration of the ligand.
For the correction of the internal filter effect, were used the molar absorptivity coefficient values in the excitation (295 nm) and emission (333 nm) lengths, [λ/ε (L mol^−1 cm^−1)]; HL1^Ch (εex = 373 and εem = 117), HL3^FPh (εex = 1191 and εem = 57), HL5^NO2Ph (εex = 6162 and εem = 9124), Au1 (εex = 7045 and εem = 4008) and Ag3 (εex = 9431 and εem = 3281).

Data set [5] in a line: Solubility in buffer for the fluorescence experiments. The format is physicochemical. To be noted: Tris-HCl buffer. The method, then: as §4
After the synthesis and structural characterization of the compounds, studies of interaction of the compounds and the recombinant LbOYE were carried out by fluorescence measurements.

A further data set deals with L. braziliensis. Also on record: method as in PMID 32830445. To be noted: activity against L. braziliensis and cytotoxicity on macrophages; cited from earlier work.
The subject of data set [6] is Vero cells. Also on record: method as in PMID 31152929. Conditions: value for the reference drug in Table 5; cited from earlier work.

Like-named read-outs stand apart in the source and are kept apart here.

Consider `Cc1ccc(S(=O)(=O)NNC(Nc2ccc(Cl)cc2)=[S][Au+][S]=C(NNS(=O)(=O)c2ccc(C)cc2)Nc2ccc(Cl)cc2)cc1.[Cl-]` [Au4, [Au(HL4^ClPh)2]Cl], for which, in the data set with Leishmania infantum, the IC50 amounted to 38.18 ± 0.158 µM and the “SI L. infantum” value is given as 0.84. Besides, in the data set on Leishmania braziliensis, the IC50 was found to be 277.6 ± 0.163 µM and the “SI L. braziliensis” value was 0.12. In the data set on Vero cells [1], it took 32 µM to reach half-maximal cytotoxicity (CC50). Moreover, the “Solubility in solvents, in words” value in data set [2] is “low solubility”.

On to `Cc1ccc(S(=O)(=O)NNC(NC2CCCCC2)=[S][Au+][S]=C(NNS(=O)(=O)c2ccc(C)cc2)NC2CCCCC2)cc1.[Cl-]` [Au1, [Au(HL1^Ch)2]Cl], for which, at LbOYE [3], the “Inhibition of LbOYE reaction (initial velocity V0), in words” value is on record as “demonstrates capacity of inhibition, although less than the Ag3”. Moreover, in the data set with Leishmania infantum, the IC50 stood at 105 ± 3.14 µM and the “SI L. infantum” value was found to be 0.19. In the data set with Leishmania braziliensis, the concentration for half-maximal inhibition (IC50) worked out at 77.38 ± 0.018 µM and the “SI L. braziliensis” value is 0.26. Further, the Kd on LbOYE [4] (Hill plot (n = 1), Equation (1), Tris-HCl pH 8.0, 2.5% DMSO, read-out: Kd * (Hill plot)) was determined as 110 ± 30 µM. Also, the “Ksv *** (Stern–Volmer constant)” value on LbOYE [4] (Stern–Volmer, Equation (3)) is on record as 2.4 ± 0.2 × 10^4. Besides, at LbOYE [4] (double log, Equation (2), Kd = 1/Kb, read-out: Kd ** (double log) (converted)), the Kd is 39 ± 3 µM. Further, the “n ** (number of bonding sites)” value at LbOYE [4] (double log, Equation (2)) is recorded as 1.8 ± 0.1. In addition, in [5], the “Solubility in buffer at the concentrations for the fluorescence experiments, in words” value was “passed this stage”. Half-maximal cytotoxicity in the data set on Vero cells [1] (CC50) was put at 19.9 µM.

`C[C@@H]1[C@H](O)[C@@H](C)/C=C/C=C/C=C/C=C/C=C/C=C/C=C/[C@H](O[C@@H]2O[C@H](C)[C@@H](O)[C@H](N)[C@@H]2O)C[C@@H]2O[C@](O)(C[C@@H](O)C[C@@H](O)[C@H](O)CC[C@@H](O)C[C@@H](O)CC(=O)O[C@H]1C)C[C@H](O)[C@H]2C(=O)O` [amphotericin B]: in the data set on L. braziliensis, the SI is 6.8.

Consider Glucantime [reference compound], for which the IC50 with Leishmania infantum was 113 to 130 µM; with Leishmania braziliensis, 176 to 192 µM. Further, in the data set on Vero cells [6], the CC50 was 1630 µM.

Usually IC50 stands for the concentration that gives 50% inhibition. In general, CC50 refers to the concentration at which the toxic effect on the cells reaches its halfway point. As usually defined, the Kd is the free concentration of one partner at which half of the binding sites on the other are occupied at equilibrium, for simple one-to-one binding.
